Assay results from PMC4669789, “Selective inhibition of HDAC8 decreases neuroblastoma growth in vitro and in vivo and enhances retinoic acid-mediated differentiation” (Cell Death & Disease, 2015).

Legend:
[1] = Determination of inhibitor plasma half-life; format: in vivo, mouse
HDAC1 = HDAC1 (Homo sapiens, UniProt Q13547); assay: In vitro HDAC activity assay (Reaction Biology); format: biochemical; details: cell-free; symbol; read-out: IC50 values of HDAC8 inhibitors, HDAC1
[2] = tested on: neuroblastoma cell culture; assay: Intracellular whole lysine acetylation via FACS; format: cell-based, human
Protocol: Cells were collected, washed with PBS and fixed with 2% paraformaldehyde for 15 min at room temperature (RT). Cells were permeabilized by incubation with 50 μg/ml digitonin for 6 min at RT. Cells were incubated with primary antibody overnight at 4 °C. After staining with Cy3-conjugated anti-rabbit antibody, cells were analyzed by FACS using CellQuest software (BD Biosciences, San Jose, CA, USA). The following primary antibodies were used: anti-acetylated lysine (polyclonal; Cell Signaling) and anti-neurofilament-M (clone EP2460; Epitomics, Burlingame, CA, USA).

NMRI Foxn1 nude mice = assay: Blood parameters (clinical chemistry, hematology) at MTD; format: in vivo; details: n=8, mean ±S.D.
Protocol: Each dose was tested in a cohort of three animals. Resulting MTDs were validated within cohorts of eight animals for each inhibitor. […] As a reference, the blood of 12 untreated NMRI Foxn1 nude mice was analyzed. […] Vorinostat was used as a control for unselective HDAC inhibition.
DLTs were monitored by observation of general condition and determination of body weight. We used several criteria for objectively measuring DLT. These included a decrease in body weight of ≥20% compared with baseline body weight, blood analysis of standard parameters for clinical chemistry and hematology (central laboratory of University Hospital Heidelberg, Heidelberg, Germany) and organ histopathology (formalin-fixed, paraffin-embedded organs), by H&E stain for the detection of necrosis (Prof. Dr. AD Gruber, Institute for Veterinary Pathology, Berlin, Germany).

Sequence of HDAC1 (Q13547 9-321 limits assumed): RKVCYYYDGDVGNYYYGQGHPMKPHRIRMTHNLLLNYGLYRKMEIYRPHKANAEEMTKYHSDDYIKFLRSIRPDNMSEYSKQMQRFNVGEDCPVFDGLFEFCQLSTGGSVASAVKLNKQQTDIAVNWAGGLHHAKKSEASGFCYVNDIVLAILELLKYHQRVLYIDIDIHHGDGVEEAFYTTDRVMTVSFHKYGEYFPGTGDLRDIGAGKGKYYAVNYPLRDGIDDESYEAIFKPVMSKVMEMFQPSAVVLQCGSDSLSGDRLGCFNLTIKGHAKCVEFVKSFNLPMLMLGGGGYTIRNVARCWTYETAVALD

O=C(NO)c1cccc2ccccc12 [Cpd2, 1-naphthohydroxamic acid]
half-life ([1]; NMRI Foxn1 nude, mouse, plasma, ip, 100 mg/kg, intraperitoneal 100 mg/kg, NMRI Foxn1 nude mice, read-out: half-life in blood plasma): ~15 min
plasma peak concentration ([1]; intraperitoneal, single dose of 100 mg/kg, mice): ~ 30 μM
IC50 (HDAC1): > 75.6 µM
whole acetyl-lysine mean fluorescent values (Blank-corrected) ([2]; 20µM, solvent 34.4, second experiment): 56.9
whole acetyl-lysine mean fluorescent values (Blank-corrected) ([2]; 40µM, solvent 24.7, IMR-32 cells, 24 h per Figure 1c): 36.9
Hematocrit (NMRI Foxn1 nude mice; normal range 0.3–0.4): 0.4±0.01 l/l
Uric acid (NMRI Foxn1 nude mice; normal range 0.4–3.2): 0.9 ± 1.0 mg/dL
Leukocytes (NMRI Foxn1 nude mice; normal range 1.8–6.1): 4.4 ± 1.8 nL⁻¹
Calcium (NMRI Foxn1 nude mice; normal range 2.1–2.4): 2.4 ± 0.4 mmol/L
Potassium (NMRI Foxn1 nude mice; normal range 3.8–6.4): 6.9 ± 2.2 mmol/L
Erythrocytes (NMRI Foxn1 nude mice; normal range 5.5–8.2): 7.6 ± 0.3 pL⁻¹
Hemoglobin (NMRI Foxn1 nude mice; normal range 9.4–12.7): 12.4 ± 0.7 g/dL
Urea (NMRI Foxn1 nude mice; normal range 17.4–38.3): 23.5 ± 6.4 mg/dL
AP (NMRI Foxn1 nude mice; normal range 62.5–117.6): 123.8±35.8 U/l
Chloride (NMRI Foxn1 nude mice; normal range 97.3–109.7): 99.9 ± 2.2 mmol/L
Sodium (NMRI Foxn1 nude mice; normal range 123.4–135.7): 136.8 ± 5.3 mmol/L
Glucose (NMRI Foxn1 nude mice; normal range 176.8–238.6): 187.8 ± 39.1 mg/dL
Thrombocytes (NMRI Foxn1 nude mice; normal range 242.5–806.8): 682.0 ± 151.1 nL⁻¹
GGT (NMRI Foxn1 nude mice; normal range −1.9 to 1.0): −2.0±1.0 U/l
